# Reference: patent US20170304388A1, “NEW INDICATION OF CARDIOVASCULAR DRUGS FOR PREPARATION OF CANCER INHIBITION PHARMACEUTICAL COMPOSITION” (LAUNX BIOMEDICAL CO., LTD., priority 2014, published 2017)
# What was measured:
# Type in all cases: cell-based
# [1] = tested on: MKN-45 (Gastric Adenocarcinoma); assay: Cell viability analysis (WST-1), MKN-45; conditions: Table 4, repeated experiments, drug 10 μM
# [2] = tested on: A549 (Lung Adenocarcinoma); assay: Cell viability analysis (WST-1), A549; conditions: Table 4, repeated experiments, drug 10 μM
# [3] = tested on: PC3 (Prostate Adenocarcinoma); assay: Cell viability analysis (WST-1), PC3; conditions: Table 4, repeated experiments, drug 10 μM
# MDA-MB231 = assay: Cell viability analysis (WST-1), MDA-MB231; conditions: Table 4, repeated experiments, drug 10 μM
# C-33A = assay: Cell viability analysis (WST-1), C-33A; conditions: Table 4, repeated experiments, drug 10 μM
# Description: (§1) Subculture the different types of cancer cells. The cancer cells includes lung cancer, gastric cancer, hepatic cancer, colon cancer, skin cancer, cervical cancer, prostate cancer, bladder cancer, breast cancer, leukemia, pancreatic cancer, ovarian cancer, tongue cancer, osteosarcoma, and renal cancer. The cell numbers were counted and reseed as 2×10^6 in cell culture plate/flask. Then, the culture medium for culturing the cell lines was added to a volume of 10 ml, and the cells were cultured for 2-3 days. Then, the cells were suspended for loading into 96-well plates. The cell number was 3000 cells and the volume of the culture medium was 100 ul each well.
# (§2) Removing the original culture medium from 96-well plate. Then add 100 μl of commercially drug at a concentration of 10 μM per well. After 72 hours, add the diluted WST-1 reagent to the well with 100 μl/well, and the diluted WST-1 reagent was acquired from the dilution of 9:1 medium and WST-1 stock reagent. Finally, the total volume of each well are 200 μl/well. Culture the 96-well plate at 37° C. for 30 to 90 minutes. Detecting and calculating the survival rate of each cancer cells with an ELISA reader at OD450 nm. The lower viability of cancer cells represents better inhibition effect via the drugs. Otherwise, the higher viability of cancer cells represents worse inhibition effect via the drugs.
# (§3) According to the above mentioned cardiovascular drugs for cancer growth inhibition in Table 3, the inventors took the repeat experiments for the cardiovascular drugs to check the growth inhibitory effects of cancer cells by the cardiovascular drugs. […] 4.
# [4] = tested on: HCT116 (Colorectal Carcinoma); assay: Cell viability analysis (WST-1), HCT116; conditions: Table 4, repeated experiments, drug 10 μM
# T24 = assay: Cell viability analysis (WST-1), T24; conditions: Table 4, repeated experiments, drug 10 μM
# Description: as §1, §2, §3
# [5] = tested on: H1650 (Lung Adenocarcinoma); assay: Cell viability analysis (WST-1), H1650; conditions: Table 4, repeated experiments, drug 10 μM
# [6] = tested on: TSGH-8301 (Urinary Bladder Carcinoma); assay: Cell viability analysis (WST-1), TSGH-8301; conditions: Table 4, repeated experiments, drug 10 μM
# Hep3B = assay: Cell viability analysis (WST-1), Hep3B; conditions: Table 4, repeated experiments, drug 10 μM
# Description: as §1, §2, §3
# AsPC-1 = assay: Cell viability analysis (WST-1), AsPC-1; conditions: Table 4, repeated experiments, drug 10 μM
# Procedure, shortened: (§4)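 Wells receive 3000 cells, and the medium is swapped for drug at 10 μM. Seventy-two hours later, WST-1 reagent diluted 9:1 with medium is added, plates sit at 37° C for 30–90 minutes, and OD450 nm yields survival rate.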
# [7] = tested on: A375 (Amelanotic Melanoma); assay: Cell viability analysis (WST-1), A375; conditions: Table 4, repeated experiments, drug 10 μM
# TOV-21G = assay: Cell viability analysis (WST-1), TOV-21G; conditions: Table 4, repeated experiments, drug 10 μM
# Description: as §1, §2, §3
# 786-O = assay: Cell viability analysis (WST-1), 786-O; conditions: Table 4, repeated experiments, drug 10 μM
# Description: as §1, §2, §3
# [8] = tested on: LoVo (Colorectal Adenocarcinoma); assay: Cell viability analysis (WST-1), LoVo; conditions: Table 4, repeated experiments, drug 10 μM
# [9] = tested on: AGS (Gastric Adenocarcinoma); assay: Cell viability analysis (WST-1), AGS; conditions: Table 4, repeated experiments, drug 10 μM
# [10] = tested on: HeLa (Cervix Adenocarcinoma); assay: Cell viability analysis (WST-1), HeLa; conditions: Table 4, repeated experiments, drug 10 μM
# BxPC-3 = assay: Cell viability analysis (WST-1), BxPC-3; conditions: Table 4, repeated experiments, drug 10 μM
# Procedure, shortened: as §4
# cancer cell lines = assay: Growth inhibitory effects on the panel of cancer cell lines; conditions: drug 10 μM, 72 hours, WST-1
# [11] = tested on: HepG2 (Hepatocellular Carcinoma); assay: Cell viability analysis (WST-1), HepG2; conditions: Table 4, repeated experiments, drug 10 μM
# BCC = assay: Cell viability analysis (WST-1), BCC; conditions: Table 4, repeated experiments, drug 10 μM
# NIH-OVCAR-3 = assay: Cell viability analysis (WST-1), NIH-OVCAR-3; conditions: Table 4, repeated experiments, drug 10 μM
# Description: as §1, §2, §3
# [12] = tested on: MCF7 (Mammary Gland, Adenocarcinoma); assay: Cell viability analysis (WST-1), MCF7; conditions: Table 4, repeated experiments, drug 10 μM
# SAS = assay: Cell viability analysis (WST-1), SAS; conditions: Table 4, repeated experiments, drug 10 μM
# Procedure, shortened: as §4
# U2OS = assay: Cell viability analysis (WST-1), U2OS; conditions: Table 4, repeated experiments, drug 10 μM
# Description: as §1, §2, §3
smiles,measurement,setting,value
"CC(C)c1c(C(=O)Nc2ccccc2)c(-c2ccccc2)c(-c2ccc(F)cc2)n1CC[C@@H](O)C[C@@H](O)CC(=O)[O-].CC(C)c1c(C(=O)Nc2ccccc2)c(-c2ccccc2)c(-c2ccc(F)cc2)n1CC[C@@H](O)C[C@@H](O)CC(=O)[O-].[Ca+2] [Atorvastatin calcium (Lipitor), Atorvastatin calcium]","survival rate (viability) of cancer cells, MKN-45","[1]; 72 hours, WST-1",84.18
same,"survival rate (viability) of cancer cells, A549","[2]; 72 hours, WST-1",90.1462
same,"survival rate (viability) of cancer cells, PC-3","[3]; 72 hours, WST-1",56.4832
same,"survival rate (viability) of cancer cells, MDA-MB231",MDA-MB231; 72 hours,47.84
same,"survival rate (viability) of cancer cells, C-33A",C-33A; 72 hours,96.95
same,"survival rate (viability) of cancer cells, HCT116","[4]; 72 hours, WST-1",82.55
same,"survival rate (viability) of cancer cells, T24",T24; 72 hours,78.47
same,"survival rate (viability) of cancer cells, H1650","[5]; 72 hours, WST-1",69.55
same,"survival rate (viability) of cancer cells, TSGH-8301","[6]; 72 hours, WST-1",70.59
same,"survival rate (viability) of cancer cells, Hep3B",Hep3B; 72 hours,91.86
same,"survival rate (viability) of cancer cells, AsPC-1",AsPC-1; 72 hours,81.1
same,"survival rate (viability) of cancer cells, A375","[7]; 72 hours, WST-1",23.01
same,"survival rate (viability) of cancer cells, TOV-21G",TOV-21G; 72 hours,34.04
same,"survival rate (viability) of cancer cells, 786-O",786-O; 72 hours,32.54
same,"survival rate (viability) of cancer cells, LoVo","[8]; 72 hours, WST-1",103.0307
same,"survival rate (viability) of cancer cells, AGS","[9]; 72 hours, WST-1",31.48
same,"survival rate (viability) of cancer cells, HeLa","[10]; 72 hours, WST-1",78.64
same,"survival rate (viability) of cancer cells, BxPC-3",BxPC-3; 72 hours,81.03
same,inhibition effect on different cancer cell lines (in words),cancer cell lines,significant inhibition effect
same,"survival rate (viability) of cancer cells, HepG2","[11]; 72 hours, WST-1",95.92
same,"survival rate (viability) of cancer cells, BCC",BCC; 72 hours,41.49
same,"survival rate (viability) of cancer cells, NIH-OVCAR-3",NIH-OVCAR-3; 72 hours,98.3
same,"survival rate (viability) of cancer cells, MCF-7","[12]; 72 hours, WST-1",79.08
same,"survival rate (viability) of cancer cells, SAS",SAS; 72 hours,76.29
same,"survival rate (viability) of cancer cells, U2OS",U2OS; 72 hours,86.25
COCCOC(=O)C1=C(C)NC(C)=C(C(=O)OC/C=C/c2ccccc2)C1c1cccc([N+](=O)[O-])c1 (centres unmarked) [Cilnidipine],viability at 10 µM,"[1]; Homo sapiens, MKN-45, 72 h, WST-1, read-out: survival rate (viability) of cancer cells, MKN-45",105%
same,viability at 10 µM,"[2]; Homo sapiens, A549, 72 h, WST-1, read-out: survival rate (viability) of cancer cells, A549",67.8%
same,viability at 10 µM,"[3]; 72 h, WST-1, read-out: survival rate (viability) of cancer cells, PC-3",61.4%
same,viability at 10 µM,"MDA-MB231; Homo sapiens, MDA-MB-231, 72 h, read-out: survival rate (viability) of cancer cells, MDA-MB231",86.3%
same,viability at 10 µM,"C-33A; Homo sapiens, C-33-A, 72 h, read-out: survival rate (viability) of cancer cells, C-33A",93%
same,viability at 10 µM,"[4]; Homo sapiens, HCT-116, 72 h, WST-1, read-out: survival rate (viability) of cancer cells, HCT116",88.6%
same,viability at 10 µM,"T24; Homo sapiens, T-24, 72 h, read-out: survival rate (viability) of cancer cells, T24",108%
same,viability at 10 µM,"[5]; Homo sapiens, NCI-H1650, 72 h, WST-1, read-out: survival rate (viability) of cancer cells, H1650",69%
same,viability at 10 µM,"[6]; 72 h, WST-1, read-out: survival rate (viability) of cancer cells, TSGH-8301",95.9%
same,viability at 10 µM,"Hep3B; Homo sapiens, Hep3B, 72 h, read-out: survival rate (viability) of cancer cells, Hep3B",92.7%
same,viability at 10 µM,"AsPC-1; Homo sapiens, ASPC1, 72 h, read-out: survival rate (viability) of cancer cells, AsPC-1",57.6%
same,viability at 10 µM,"[7]; Homo sapiens, A-375, 72 h, WST-1, read-out: survival rate (viability) of cancer cells, A375",47.1%
same,viability at 10 µM,"TOV-21G; Homo sapiens, TOV21G, 72 h, read-out: survival rate (viability) of cancer cells, TOV-21G",62.9%
same,viability at 10 µM,"786-O; Homo sapiens, 786-0, 72 h, read-out: survival rate (viability) of cancer cells, 786-O",86.7%
same,viability at 10 µM,"[8]; Homo sapiens, LoVo, 72 h, WST-1, read-out: survival rate (viability) of cancer cells, LoVo",53.7%
same,viability at 10 µM,"[9]; 72 h, WST-1, read-out: survival rate (viability) of cancer cells, AGS",76.9%
same,viability at 10 µM,"[10]; Homo sapiens, HeLa, 72 h, WST-1, read-out: survival rate (viability) of cancer cells, HeLa",64.3%
same,viability at 10 µM,"BxPC-3; Homo sapiens, BXPC-3, 72 h, read-out: survival rate (viability) of cancer cells, BxPC-3",68.7%
same,inhibition effect on different cancer cell lines (in words),cancer cell lines,significant inhibition effect
same,viability at 10 µM,"[11]; Homo sapiens, HepG2, 72 h, WST-1, read-out: survival rate (viability) of cancer cells, HepG2",77.1%
same,viability at 10 µM,"BCC; BCC, 72 h, read-out: survival rate (viability) of cancer cells, BCC",60.2%
same,viability at 10 µM,"NIH-OVCAR-3; Homo sapiens, OVCAR-3, 72 h, read-out: survival rate (viability) of cancer cells, NIH-OVCAR-3",75.9%
same,viability at 10 µM,"[12]; Homo sapiens, MCF7, 72 h, WST-1, read-out: survival rate (viability) of cancer cells, MCF-7",64.6%
same,viability at 10 µM,"SAS; 72 h, read-out: survival rate (viability) of cancer cells, SAS",38.9%
same,viability at 10 µM,"U2OS; Homo sapiens, U2OS, 72 h, read-out: survival rate (viability) of cancer cells, U2OS",43.1%
